This is an account of results in ChEMBL document CHEMBL3297704, “Theophylline-7-acetic acid derivatives with amino acids as anti-tuberculosis agents” (Bioorg Med Chem Lett, 2014).

As usually defined, the MIC is the lowest concentration that inhibits growth of the organism. The term IC50 denotes the concentration at which inhibition is half-maximal. Low values mean greater potency in that assay, high ones weaker potency in that assay.

In brackets after ≈: the same amount, converted by molar mass. Structures can show the parent of a compound that is named as a salt.

In assay [1] the test system is Mycobacterium tuberculosis. Nature of the assay: Antituberculosis activity against Mycobacterium tuberculosis H37Rv assessed as inhibition of bacterial growth after 45 days. It is filed as functional.
The next assay relates to HEK-293T. Description: Cytotoxicity against human 293T cells after 72 hrs by MTT assay. In kind it is cell-based. (In general: Tetrazolium dyes change colour on reduction, which living cells bring about.)

In the case of `COC(=O)[C@H](Cc1cc2ccccc2[nH]1)NC(=O)Cn1cnc2c1c(=O)n(C)c(=O)n2C`, in assay [1], the MIC is 0.46 µM (≈ 0.202 µg/mL). Further, in the assay on HEK-293T, the IC50 was more than 400 µM.
As to `C[C@H](NC(=O)Cn1cnc2c1c(=O)n(C)c(=O)n2C)C(=O)O`, the MIC in assay [1] amounted to 0.65 µM (≈ 0.201 µg/mL). Besides, the IC50 in the assay with HEK-293T was more than 400 µM.
The corresponding values for `Cn1c(=O)c2c(ncn2CC(=O)N[C@@H](Cc2cc3ccccc3[nH]2)C(=O)O)n(C)c1=O` are 0.47 µM (≈ 0.199 µg/mL) and more than 400 µM.
As to `CC[C@@H](CO)NCCN[C@@H](CC)CO` [ETHAMBUTOL HYDROCHLORIDE], the MIC in assay [1] stood at 7.22 µM.
